Usually IC50 stands for the concentration needed to halve the response being measured.

We go through 4 molecules from publication PMC10610494, “Anticancer Peptides Derived from Aldolase A and Induced Tumor-Suppressing Cells Inhibit Pancreatic Ductal Adenocarcinoma Cells” (Pharmaceutics, 2023).

Data set [1] has as its system human PDAC tissue fragments. The data set is described as follows: Ex vivo PDAC tissue fragment assay. It counts as cell-based. The source says:
The utilization of human pancreatic cancer tissue was approved by the Indiana University Institutional Review Board (1911155674), and the tissue samples were sourced from the Indiana University Simon Comprehensive Cancer Center Tissue Procurement Core. A freshly procured pancreatic cancer tissue, weighing approximately 1 g, was manually sectioned into small fragments (ranging from 0.5 to 0.8 mm in length) using a scalpel. These fragments were subsequently cultured in DMEM supplemented with 10% FBS and antibiotics for one day. Following this initial incubation, the described conditioned medium (CM) was introduced and maintained for an additional four days, during which any alterations in fragment size were assessed.

Data set [2] concerns PANC1 cells. The data set is described as follows: MTT-based viability assay. It counts as cell-based, human. The following applies: for IC50: Homo sapiens. The procedure: (§1) MTT-based assessment of metabolic activity involved seeding approximately 2000 cells into 96-well plates. These cells were subsequently incubated with treatment agents for two days. On day 4, the cells were subjected to staining with 0.5 mg/mL thiazolyl blue tetrazolium bromide (M5655, Sigma). The determination of metabolic activity was based on the measurement of optical density at 562 nm. For the evaluation of proliferation activity using the EdU assay, around 1000 cells were seeded into 96-well plates. A fluorescence-based cell proliferation kit (Click-iT™ EdU Alexa Fluor™ 488 Imaging Kit; Thermo Fisher, Waltham, MA, USA) was employed, following the manufacturer’s protocol. This kit facilitated the detection of EdU incorporation as an indicator of proliferating cells.
A general note: Tetrazolium assays rely on reduction of a dye to a coloured formazan, in cell work by metabolically active cells.

The test system of data set [3] is Snail. Kind of data set: Western blot analysis. The data set is classed as cell-based, human. The following applies: 25 μg/mL P04. The procedure:
(§2) Cell lysis was achieved using RIPA lysis buffer (sc-24948, Santa Cruz Biotech, Dallas, TX, USA), supplemented with protease inhibitors (PIA32963, Thermo Fisher), and phosphatase inhibitors (2006643, Calbiochem, Billerica, MA, USA). Subsequently, proteins were separated using 10–15% SDS gels (Bio-Rad Laboratories, Hercules, CA, USA) and then transferred onto polyvinylidene difluoride membranes (IPVH00010, Millipore, Billerica, MA, USA). The membrane was first incubated with primary antibodies, followed by secondary antibodies (7074S/7076S, Cell Signaling, Danvers, MA, USA). Antibodies against ALDOA, Snail, p-Src, Src, cleaved caspase 3, caspase 3 (Cell Signaling), and K-Ras (Santa Cruz Biotech) were employed, with β-actin (Sigma) serving as a control. Protein levels were determined utilizing the Super-Signal West Femto Maximum Sensitivity Substrate (PI34096, Thermo Fisher), and signal intensities were quantified using a luminescent image analyzer (LAS-3000, Fuji Film, Tokyo, Japan).
(A western blot detects proteins with antibodies after separation by electrophoresis.)

The subject of data set [4] is K-Ras. Kind of data set: Western blot analysis. It counts as cell-based, human. The procedure:
as §2

The test system of data set [5] is cleaved caspase 3. Kind of data set: Western blot analysis. The data set is classed as cell-based, human. Conditions: 25 μg/mL P04. The procedure: as §2
The subject of data set [6] is p-Src. Kind of data set: Western blot analysis. It counts as cell-based, human. The following applies: 25 μg/mL P04. The procedure: as §2
The subject of data set [7] is ALDOA. The data set is described as follows: Western blot analysis. It counts as cell-based, human. The procedure:
as §2

For data set [8], the system named is PANC1 cells. Kind of data set: EdU proliferation assay. It counts as cell-based, human. The following applies: 25 μg of P04. The procedure:
as §1

Data set [9] relates to PANC1 cells. The data set is described as follows: Wound-healing scratch assay (motility). It counts as cell-based, human. The following applies: 25 μg/mL peptide, 0 h vs 24 h. The procedure: To analyze the two-dimensional migratory behavior of PANC cells, a wound-healing scratch assay was employed to assess the change in the scratched area. Around 3 × 10^5 cells were seeded into 12-well plates on day 1. On day 2, a scratch was carefully created on the cell layer using the tip of a plastic pipette. The cells were then rinsed with DMEM to eliminate any detached cells. Images of the cell-free areas were captured at both 0 h and 24 h using a light microscope (40× magnification). The sizes of the cell-free zones were subsequently quantified using Image J (v1.5.4f).

The test system of data set [10] is PANC1 cells. Kind of data set: Transwell invasion assay. It counts as cell-based, human. The following applies: 25 μg of P04. The procedure:
To assess the invasive potential of tumor cells, a 12-well plate and transwell chambers (353,182, Thermo Fisher) featuring 8-µm pore size were employed. The transwell chambers were pre-coated with 300 µL of Matrigel (100 µg/mL), followed by the addition of 500 µL of serum-free medium. Afterward, the chambers were rinsed three times with a serum-free medium. Subsequently, approximately 7 × 10^4 cells in 300 µL of serum-free DMEM were introduced into the upper chamber, while 800 µL of the conditioned medium (CM) was added to the lower chamber. Upon completion of the experiment, cells that had invaded the lower side of the membrane were fixed and stained using methanol and crystal violet. Utilizing an inverted optical microscope (100×), five randomly selected images were captured. From these images, the average count of stained cells, serving as an indicator of the invasion capacity, was determined.

Data set [11] concerns MSCs. The data set is described as follows: MTT-based viability of MSCs. The data set is classed as cell-based, mice. Conditions: P04; assay not specified, no data shown. The procedure:
Human pancreatic ductal adenocarcinoma (PDAC) cell lines including PANC1 (ATCC, Manassas, VA, USA), PANC198, and Pa03C (sourced from Indiana University Simon Comprehensive Cancer Center, Indianapolis, IN, USA) were cultured in DMEM (10-013-CV, Corning Inc., Corning, NY, USA). The breast cancer cell lines MDA-MB-231 and MDA-MB-436 (ATCC) were grown in RPMI-1640 medium (Gibco, Carlsbad, CA, USA). The culture media for all cell lines were supplemented with 10% fetal bovine serum and antibiotics (100 units/mL penicillin and 100 µg/mL streptomycin; Life Technologies, Grand Island, NY, USA). Jurkat T lymphocytes (ATCC) were cultured in RPMI-1640 medium (10-040-CV, Corning). Murine MSCs derived from the bone marrow of C57BL/6 mice were cultured in DMEM. All cell cultures were maintained at 37 °C with 5% CO2. The overexpression of ALDOA was accomplished by transfecting its plasmids (109,854; Addgene, Cambridge, MA, USA), while blank plasmids (FLAG-HA-pcDNA3.1; Addgene) were employed as controls.
MTT-based assessment of metabolic activity involved seeding approximately 2000 cells into 96-well plates. These cells were subsequently incubated with treatment agents for two days. […] A fluorescence-based cell proliferation kit (Click-iT™ EdU Alexa Fluor™ 488 Imaging Kit; Thermo Fisher, Waltham, MA, USA) was employed, following the manufacturer’s protocol. […]

Data set [12] deals with PA03C cells. Kind of data set: MTT-based viability assay. It counts as cell-based, human. Conditions: 25 μg/mL peptide, incubated two days, vs control. The procedure:
as §1

For data set [13], the system named is PAN198 cells. The data set is described as follows: MTT-based viability assay. The data set is classed as cell-based, human. The following applies: 25 μg/mL peptide, incubated two days, vs control. The procedure: as §1
Where [14] appears, read: PANC-1, chemotherapeutic agent alone.
Where [15] appears, read: PANC-1, chemotherapeutic agent together with 25 μg/mL P04.
The mark [16] stands for this setting: following administration of rhALDOA.

With `O=c1[nH]cc(F)c(=O)[nH]1` [5-Flu, 5-fluorouracil], the PDAC fragment size result in data set [1] (10 μM 5-Flu alone, 96 h, n = 8) is “reduction”. Also, the half-inhibitory concentration (IC50) stood at 3300 nM in data set [2] (setting [14]) and 1600 nM in data set [2] (setting [15]).
As for `Nc1ccn([C@@H]2O[C@H](CO)[C@@H](O)C2(F)F)c(=O)n1` [gemcitabine], the IC50 in [2] (setting [14]) was found to be 1000 nM; in [2] (setting [15]), 800 nM.
With “IGEHTPSALAIMENANVLAR [P04, anticancer peptide derived from aldolase A (ALDOA)]”, the Snail level result in data set [3] (PAN198 cells) and in [3] (PANC1 cells) was “downregulation” throughout. In addition, the K-Ras level result in data set [4] (PANC1 cells, 25 μg/mL P04) is on record as “discernible reduction”. The “cleaved caspase 3 level” value in data set [5] (PAN198 cells) is given as “increase”; in data set [5] (PANC1 cells), “elevation”. Besides, the p-Src level entry in [6] (PAN198 cells) and in [6] (PANC1 cells) was “downregulation” throughout. Moreover, in [7] (PANC1 cells, 25 μg/mL P04), the ALDOA level result is “decrease”. Further, the “EdU-based proliferation of PANC1 cells” value in [8] is recorded as “discernible decrease”. Moreover, in [9], the “scratch-based motility of PANC1 cells” value was “reduction”. Further, in [10], the “transwell-based invasion of PANC1 cells” value is reported as “discernible decrease”. For the same molecule, in [1] (25 μg/mL P04, 96 h, n = 8, patient tissue ex vivo), the PDAC fragment size result was “notable reduction”. The “inhibitory effect on mesenchymal stem cells (MSC growth)” value in data set [11] is “no inhibitory effect”. The “MTT-based viability of PA03C cells” value in data set [12] is reported as “reduction”. Also, the “MTT-based viability of PANC1 cells” value in [2] (25 μg/mL peptide, incubated two days, vs control) is “reduction”. Also, the “MTT-based viability of PAN198 cells” value in data set [13] was “reduction”.

B1: rhALDOA: human recombinant ALDOA protein (MBS8248528, MyBioSource) (protein, UniProt P04075 2-364, looked up)
Fructose-bisphosphate …: PYQYPALTPEQKKELSDIAHRIVAPGKGILAADESTGSIAKRLQSIGTENTEENRRFYRQLLLTADDRVNPCIGGVILFHETLYQKADDGRPFPQVIKSKGGVVGIKVDKGVVPLAGTNGETTTQGLDGLSERCAQYKKDGADFAKWRCVLKIGEHTPSALAIMENANVLARYASICQQNGIVPIVEPEILPDGDHDLKRCQYVTEKVLAAVYKALSDHHIYLEGTLLKPNMVTPGHACTQKFSHEEIAMATVTALRRTVPPAVTGITFLSGGQSEEEASINLNAINKCPLLKPWALTFSYGRALQASALKAWGGKKENLKAAQEEYVKRALANSLACQGKYTPSGQAGAAASESLFVSNHAY
As to B1, in data set [4] (setting [16]), the K-Ras level result is on record as “discernible decreases”. The ALDOA level result in [7] (setting [16]) is on record as “discernible decreases”. In data set [2] (5 μg/mL recombinant ALDOA protein), the “MTT-based viability of PANC1 cells” value is listed as “notable reduction”.
